Patent publication US20250073248A1, “BIORESORBABLE CATIONIC STEROIDAL ANTIMICROBIAL COMPOUNDS WITH GLYCERIDE LINKAGES” (BRIGHAM YOUNG UNIVERSITY, priority 2023, published 2025)
Values after ≈ are worked out from the molar mass of the structure shown.

How the values were obtained:
[1] = tested on: methicillin-resistant Staphylococcus aureus (MRSA); test: MIC and MBC, broth microdilution, MRSA (Table 1); assay type: cell-based; conditions: Staphylococcus aureus
Excerpt: (§1) To investigate the antimicrobial impact of structural variance in the novel bioresorbable CSA compounds disclosed herein,Pseudomonas aeruginosa 01 (PA01), methicillin-resistant Staphylococcus aureus (MRSA), and Candida albicans (CA) were selected, representing Gram-negative bacterial, Gram-positive bacterial, and fungal pathogens of high or critical priority on the world health organization's priority lists for bacteria and fungi. Earlier applications of CSA compounds have focused on preventing medical device infections, and all three strains are commonly found in colonized implants, making efficacy against these pathogens an important indicator of future applicability.
(§2) All compounds were screened against these pathogens to determine their minimum inhibitory concentration (MIC), minimum bactericidal concentration (MBC), and minimum fungicidal concentration (MFC) using a broth microdilution method. […] Of these three, only CSA-4110 was similarly active against PA01and CA, inhibiting growth at 8 μg/mL.

P. mirabilis ATCC 29906 = test: MIC/MBC of CSA-4110, Gram negative bacteria (Table 3); assay type: cell-based; conditions: Proteus mirabilis, ATCC29906
Procedure: as §2
(§3) CSA-4110 was evaluated further against a broader range of bacterial and fungal strains. Acinetobacter baumannii and several isolates of Staphylococcus aureus, Klebsiella pneumoniae, and Candida auris were selected, further broadening the coverage of high and critical priority pathogens. Streptococcus uberis, Staphylococcus pseudintermedius, Proteus mirabilis, and Escherichia coli were also screened to obtain a more complete efficacy profile. […] For comparison, previous work established the MICs of CSA-131 against strains of Staphylococcus aureus, Pseudomonas aeruginosa, and Candida albicans at 0.5-2 μg/mL
PM is a Gram-negative organism which is occasionally found in urinary tract infections in individuals with functional or anatomical anomalies. It is often noted for its ability to modulate its susceptibility to cationic biocides primarily through modifications to its efflux system and the structure of lipopolysaccharide, a negatively charged endotoxin located in the outer membrane. This can provide insight into the mechanism-of-action for CSA-4110. […]

[2] = tested on: Pseudomonas aeruginosa (Pa); test: Example 1 MIC/MBC (FIG. 1, FIG. 2), Pa; assay type: cell-based
Procedure: The antimicrobial activities of CSA-4108, CSA-4110, CSA-4112, and CSA-4114 were determined relative to methicillin-resistant Staphylococcus aureus (MRSA), Pseudomonas aeruginosa (Pa), and Candida albicans 90028. The minimum inhibitory concentration (MIC) for CSA-4108, CSA-4110, CSA-4112, and CSA-4114 relative to the foregoing microbes is graphically reported in FIG. 1. The minimum bactericidal concentration (MBC) and minimum fungicidal concentration […] for CSA-4108, CSA-4110, CSA-4112, and CSA-4114 relative to the foregoing microbes are graphically reported in FIG. 2.

C. auris CDC 387 = test: MIC/MFC of CSA-4110, fungi (Table 4); assay type: cell-based, Candida auris; conditions: Candidozyma auris, CDC387
Procedure: as §2, §3

C. auris CDC 385 = test: MIC/MFC of CSA-4110, fungi (Table 4); assay type: cell-based, Candida auris; conditions: Candidozyma auris, CDC385
Procedure: as §2, §3

C. auris CDC 390 = test: MIC/MFC of CSA-4110, fungi (Table 4); assay type: cell-based, Candida auris; conditions: Candidozyma auris, CDC390
Procedure: as §2, §3

C. auris CDC 381 = test: MIC/MFC of CSA-4110, fungi (Table 4); assay type: cell-based, Candida auris; conditions: Candidozyma auris, CDC381
Procedure: as §2, §3

E. coli ATCC 25922 = test: MIC/MBC of CSA-4110, Gram negative bacteria (Table 3); assay type: cell-based; conditions: Escherichia coli, ATCC25922
Procedure: as §2, §3

[3] = tested on: P. aeruginosa 01 ATCC 47085; test: as above; assay type: cell-based; conditions: Pseudomonas aeruginosa, ATCC47085
Procedure: as §2, §3

K. pneumoniae ATCC 13883 = test: as above; assay type: cell-based; conditions: Klebsiella pneumoniae, ATCC13883
Procedure: as §2, §3

K. pneumoniae ARLG 1360 = test: as above; assay type: cell-based; conditions: Klebsiella pneumoniae, ARLG1360
Procedure: as §2, §3

P. aeruginosa ATCC 27853 = test: as above; assay type: cell-based; conditions: Pseudomonas aeruginosa, ATCC27853
Procedure: as §2, §3

A. baumannii ATCC 19606 = test: as above; assay type: cell-based; conditions: Acinetobacter baumannii, ATCC19606
Procedure: as §2, §3

[4] = tested on: K. pneumoniae ATCC BAA-1706; test: as above; assay type: cell-based; conditions: Klebsiella pneumoniae, ATCCBAA1706
Procedure: as §2, §3

[5] = tested on: Pseudomonas aeruginosa 01 (PA01); test: MIC and MBC, broth microdilution, PA01 (Table 1); assay type: cell-based; conditions: Pseudomonas aeruginosa
Excerpt: as §1, §2

S. aureus ATCC 27734 = test: MIC/MBC of CSA-4110, Gram positive bacteria (Table 2); assay type: cell-based; conditions: Staphylococcus aureus, ATCC27734
Procedure: as §2, §3

MRSA ATCC BAA-42 = test: as above; assay type: cell-based; conditions: Staphylococcus aureus
Procedure: as §2, §3

S. aureus ATCC 25923 = test: as above; assay type: cell-based; conditions: Staphylococcus aureus, ATCC25923
Procedure: as §2, §3

S. uberis ATCC 27958 = test: as above; assay type: cell-based; conditions: Streptococcus uberis, ATCC27958
Procedure: as §2, §3

S. aureus ATCC 6538 = test: as above; assay type: cell-based; conditions: Staphylococcus aureus, ATCC6538
Procedure: as §2, §3

[6] = tested on: S. psuedintermedius ATCC 49444; test: as above; assay type: cell-based; conditions: Staphylococcus pseudintermedius, ATCC49444
Procedure: as §2, §3

## CCCCCCCCCC(=O)OCC(O)COC(=O)CC[C@@H](C)[C@H]1CC[C@H]2[C@@H]3[C@H](OC(=O)CCN)C[C@@H]4C[C@H](OC(=O)CCN)CC[C@]4(C)[C@H]3C[C@H](OC(=O)CCN)[C@]12C (stereo partly drawn) [CSA-4110]
[1]; MBC, value in parentheses, kills at least 99.9%
  MBC: 8 µg/mL (≈ 9.41 µM)
[1]; first value of cell
  MIC: ≤ 8 µg/mL
P. mirabilis ATCC 29906
  MBC: 64 µg/mL
  MIC: 16 µg/mL
[2]; PA
  MBC (FIG. 2), ranking in words: lowest MBC and MFC
[2]; Pa
  MIC (FIG. 1), ranking in words: lowest MIC
C. auris CDC 387
  MBC: 16 µg/mL (≈ 18.8 µM)
  MIC: 8 µg/mL (≈ 9.41 µM)
C. auris CDC 385
  MBC: 16 µg/mL (≈ 18.8 µM)
  MIC: 8 µg/mL (≈ 9.41 µM)
C. auris CDC 390
  MBC: 16 µg/mL (≈ 18.8 µM)
  MIC: 8 µg/mL (≈ 9.41 µM)
C. auris CDC 381
  MBC: 8 µg/mL (≈ 9.41 µM)
  MIC: 8 µg/mL (≈ 9.41 µM)
E. coli ATCC 25922
  MBC: 4 µg/mL
  MIC: 4 µg/mL
[3]
  MBC: 8 µg/mL
  MIC: 4 µg/mL
K. pneumoniae ATCC 13883
  MBC: 2 µg/mL
  MIC: 2 µg/mL
K. pneumoniae ARLG 1360
  MBC: 8 µg/mL
  MIC: 8 µg/mL
P. aeruginosa ATCC 27853
  MBC: 8 µg/mL
  MIC: 4 µg/mL
A. baumannii ATCC 19606
  MBC: 4 µg/mL
  MIC: 4 µg/mL
[4]
  MBC: 4 µg/mL
  MIC: 4 µg/mL
[5]; MBC, value in parentheses
  MBC: 32 µg/mL (≈ 37.6 µM)
[5]; first value of cell
  MIC: 8 µg/mL (≈ 9.41 µM)
S. aureus ATCC 27734
  MBC: 4 µg/mL
  MIC: 4 µg/mL
MRSA ATCC BAA-42
  MBC: 2 µg/mL
  MIC: 2 µg/mL
S. aureus ATCC 25923
  MBC: 8 µg/mL
  MIC: 4 µg/mL
S. uberis ATCC 27958
  MBC: 4 µg/mL
  MIC: 2 µg/mL
S. aureus ATCC 6538
  MBC: 8 µg/mL
  MIC: 4 µg/mL
[6]
  MBC: 4 µg/mL
  MIC: 4 µg/mL
